Experimental data from ChEMBL document CHEMBL1201862, “PubChem BioAssay data set” (2004).
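Compound exposure: 48 hours, 5 concentrations, 96-well plates. GI50: concentration for 50% inhibition of growth.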 The source made the active and inactive calls. Cut-off read from the data, not from the text of the source: active = GI50 up to about 1.1 µM and inactive = higher.

Tests used:
Assay in all cases: NCI-60 cell line screen, 48 h
[1] = test system: 786-0
[2] = test system: A498
[3] = test system: A549
[4] = test system: ACHN
[5] = test system: CAKI-1
[6] = test system: CCRF-CEM
[7] = test system: COLO 205
[8] = test system: DLD-1
[9] = test system: DMS-114
[10] = test system: DMS-273
[11] = test system: EKVX
[12] = test system: HCC 2998
[13] = test system: HCT-116
[14] = test system: HCT-15
[15] = test system: HL-60
[16] = test system: HOP-18
[17] = test system: HOP-62
[18] = test system: HOP-92
[19] = test system: HT-29
[20] = test system: IGROV-1
[21] = test system: K562
[22] = test system: KM-20L2
[23] = test system: KM12
[24] = test system: LOX IMVI
[25] = test system: M14
[26] = test system: M19-MEL
[27] = test system: MOLT-4
[28] = test system: Malme-3M
[29] = test system: NCI-H226
[30] = test system: NCI-H23
[31] = test system: NCI-H460
[32] = test system: NCI-H522
[33] = test system: OVCAR-3
[34] = test system: OVCAR-4
[35] = test system: OVCAR-5
[36] = test system: OVCAR-8
[37] = test system: RPMI-8226
[38] = test system: RXF 393
[39] = test system: SF-268
[40] = test system: SF-295
[41] = test system: SF-539
[42] = test system: SK-MEL-28
[43] = test system: SK-MEL-2
[44] = test system: SK-MEL-5
[45] = test system: SK-OV-3
[46] = test system: SN12C
[47] = test system: SNB-19
[48] = test system: SNB-75
[49] = test system: SNB-78
[50] = test system: SW-620
[51] = test system: TK-10
[52] = test system: U-251
[53] = test system: UACC-257
[54] = test system: UACC-62
[55] = test system: UO-31
[56] = test system: XF498
[57] = test system: SR

## Nc1ccc(N)c2c1C(=O)c1c(N)ccc(N)c1C2=O
[1]
  GI50: 36.9 µM (inactive)
[2]
  GI50: 61 µM (inactive)
[3]
  GI50: 62.7 µM (inactive)
[4]
  GI50: 27.5 µM (inactive)
[5]
  GI50: 49.9 µM (inactive)
[6]
  GI50: 23.8 µM (inactive)
[7]
  GI50: 58.6 µM (inactive)
[8]
  GI50: 78.7 µM (inactive)
[9]
  GI50: 30.6 µM (inactive)
[10]
  GI50: 39 µM (inactive)
[11]
  GI50: > 64.9 µM (inactive)
[12]
  GI50: 39.6 µM (inactive)
[13]
  GI50: > 73.3 µM (inactive)
[14]
  GI50: > 66.5 µM
[15]
  GI50: 45.6 µM (inactive)
[16]
  GI50: 16.3 µM (inactive)
[17]
  GI50: 78.2 µM (inactive)
[18]
  GI50: 36.6 µM (inactive)
[19]
  GI50: > 100 µM (inactive)
[20]
  GI50: > 100 µM (inactive)
[21]
  GI50: > 92.9 µM (inactive)
[22]
  GI50: > 100 µM (inactive)
[23]
  GI50: 60.8 µM (inactive)
[24]
  GI50: > 31.6 µM (inactive)
[25]
  GI50: > 77.3 µM (inactive)
[26]
  GI50: > 71.1 µM (inactive)
[27]
  GI50: 25.9 µM (inactive)
[28]
  GI50: > 100 µM (inactive)
[29]
  GI50: 14.6 µM (inactive)
[30]
  GI50: > 73.1 µM (inactive)
[31]
  GI50: > 73.5 µM (inactive)
[32]
  GI50: 27.5 µM (inactive)
[33]
  GI50: 25.1 µM (inactive)
[34]
  GI50: 37.1 µM (inactive)
[35]
  GI50: > 100 µM (inactive)
[36]
  GI50: 58.9 µM (inactive)
[37]
  GI50: > 57.3 µM (inactive)
[38]
  GI50: 35 µM (inactive)
[39]
  GI50: 45.7 µM (inactive)
[40]
  GI50: 70 µM (inactive)
[41]
  GI50: 31.8 µM (inactive)
[42]
  GI50: 98.6 µM (inactive)
[43]
  GI50: > 84.7 µM (inactive)
[44]
  GI50: 37.8 µM (inactive)
[45]
  GI50: > 74.5 µM (inactive)
[46]
  GI50: > 63.5 µM (inactive)
[47]
  GI50: 47.8 µM (inactive)
[48]
  GI50: 28.4 µM (inactive)
[49]
  GI50: 78.5 µM (inactive)
[50]
  GI50: 52.6 µM (inactive)
[51]
  GI50: > 59.3 µM (inactive)
[52]
  GI50: 50 µM (inactive)
[53]
  GI50: > 87.1 µM (inactive)
[54]
  GI50: 58.3 µM (inactive)
[55]
  GI50: 41.8 µM (inactive)
[56]
  GI50: > 54.5 µM (inactive)

## c1cnc2c(c1)-n1cccc1C1(CCSC1)NN2 (stereo unspecified)
[1]
  GI50: > 100 µM (inactive)
[3]
  GI50: > 100 µM (inactive)
[4]
  GI50: > 100 µM (inactive)
[5]
  GI50: > 100 µM (inactive)
[6]
  GI50: > 100 µM (inactive)
[7]
  GI50: > 100 µM (inactive)
[8]
  GI50: > 100 µM (inactive)
[9]
  GI50: > 100 µM (inactive)
[10]
  GI50: > 100 µM (inactive)
[11]
  GI50: > 100 µM (inactive)
[12]
  GI50: > 100 µM (inactive)
[13]
  GI50: > 100 µM (inactive)
[14]
  GI50: > 100 µM
[15]
  GI50: > 100 µM (inactive)
[16]
  GI50: 28.4 µM (inactive)
[17]
  GI50: > 100 µM (inactive)
[19]
  GI50: > 100 µM (inactive)
[21]
  GI50: > 100 µM (inactive)
[23]
  GI50: > 100 µM (inactive)
[24]
  GI50: > 100 µM (inactive)
[25]
  GI50: > 100 µM (inactive)
[26]
  GI50: > 100 µM (inactive)
[27]
  GI50: > 100 µM (inactive)
[28]
  GI50: > 100 µM (inactive)
[29]
  GI50: > 100 µM (inactive)
[30]
  GI50: > 100 µM (inactive)
[31]
  GI50: > 100 µM (inactive)
[32]
  GI50: > 100 µM (inactive)
[33]
  GI50: > 100 µM (inactive)
[34]
  GI50: > 100 µM (inactive)
[35]
  GI50: > 100 µM (inactive)
[36]
  GI50: > 100 µM (inactive)
[37]
  GI50: > 100 µM (inactive)
[39]
  GI50: > 100 µM (inactive)
[40]
  GI50: > 100 µM (inactive)
[41]
  GI50: > 100 µM (inactive)
[42]
  GI50: > 100 µM (inactive)
[43]
  GI50: > 100 µM (inactive)
[44]
  GI50: > 100 µM (inactive)
[46]
  GI50: > 100 µM (inactive)
[47]
  GI50: > 100 µM (inactive)
[48]
  GI50: > 100 µM (inactive)
[49]
  GI50: > 100 µM (inactive)
[57]
  GI50: > 100 µM (inactive)
[50]
  GI50: > 100 µM (inactive)
[51]
  GI50: > 100 µM (inactive)
[52]
  GI50: > 100 µM (inactive)
[53]
  GI50: > 100 µM (inactive)
[55]
  GI50: > 100 µM (inactive)
[56]
  GI50: > 100 µM (inactive)
